Here are results for two compounds from patent publication US11951269B2, “Drug-coated medical devices” (Medtronic Vascular, Inc., priority 2018, dated 2024).

A short description of data set [1]: Ex-vivo model: coated balloon inflated against bovine carotid artery in simulated flow loop, drug by HPLC. To be noted: for tissue concentration average: bovine carotid artery ex vivo, n=5. On the procedure: The coated balloons were inflated against tissue in an ex-vivo model. Briefly, the model included a bovine carotid artery mounted in a simulated flow loop comprising appropriately sized tubing. The system was maintained at 37° C. A standard hemostasis valve and 8 Fr introducer sheath are used to introduce the coated balloon into the tubing, the balloon is tracked through the sheath and tubing into the bovine carotid artery, and the balloon is deployed (inflated to approximately 1.1 B.A.R. and held for 60 s) against the bovine carotid artery tissue. The tissue and balloon are removed for analysis. […] Briefly, the amount of drug was measured by using HPLC of extracted solutions from testing specimens, such as utilizing a solvent to solubilize and remove all remaining drug from the balloon for analysis.

The nature of data set [2]: In vivo porcine model: coated balloon deployed in femoral arteries, drug concentration in tissue. The settings on record: for concentration at 1 day / concentration at 28 days: pig, femoral artery tissue, porcine femoral arteries, n=18, read-out: median concentration in the tissue; for concentration at 28 days: after 28 days; for vessels in which drug was detectable: porcine. The protocol: In vivo studies are also performed. […] After 1 day, the median sirolimus concentration in the tissue is about 0.62 μg/g, and after 28 days the median concentration is about 0.07 μg/g (n=18).

Data set [3] is described as follows: Solubility of DEX in various solvents. The data set is classed as physicochemical.

Regarding `C[C@@H]1C[C@H]2[C@@H]3CCC4=CC(=O)C=C[C@]4(C)[C@@]3(F)[C@@H](O)C[C@]2(C)[C@@]1(O)C(=O)CO` [DEX, dexamethasone], in data set [1], the tissue concentration average entry is “about 22.6 μg DEX/g of tissue”. Further, the concentration at 1 day in data set [2] (after 1 day) is approximately 0.525 ng/g. For the same compound, the concentration at 28 days in data set [2] is approximately 0.5 ng/g. The “vessels in which drug was detectable” value in data set [2] (after 1 day) is on record as “four of six vessels”; in data set [2] (day 28), “two of six vessels”. Further, the DEX solubility in data set [3] (solvent Acetone) was 12 mg\mL; in data set [3] (solvent Acetonitrile), 10 mg\mL; in data set [3] (solvent Ethanol), 8 mg\mL; in data set [3] (solvent Methanol), 15 mg\mL; in data set [3] (solvent THF) it was 30 mg\mL.
Take `CO[C@H]1C[C@@H]2CC[C@@H](C)[C@@](O)(O2)C(=O)C(=O)N2CCCC[C@H]2C(=O)O[C@H]([C@H](C)C[C@@H]2CC[C@@H](O)[C@H](OC)C2)CC(=O)[C@H](C)/C=C(\C)[C@@H](O)[C@@H](OC)C(=O)[C@H](C)C[C@H](C)/C=C/C=C/C=C/1C` [sirolimus]: the tissue concentration average entry in data set [1] is “about 25.9 μg sirolimus/g of tissue”. The “drug transferred to the tissue” value in data set [1] (sirolimus/urea first layer, DEX/urea second layer, bovine carotid artery, 37° C., inflated 60 s) was “About 1.7%”. Besides, the concentration at 1 day in data set [2] (after 1 day) was approximately 620 ng/g. For the same compound, in data set [2], the concentration at 28 days was approximately 70 ng/g.
